Patent US20260216181A1, “COMPOSITIONS AND METHODS FOR TREATING CANCER” (Coiled Therapeutics, Inc., priority 2022, published 2026)

What was measured:
[1] = tested on: RKO xenograft; assay: RKO colon cancer xenograft tumor growth; format: in vivo, athymic Balb/c nude mice
Experimental: Six-to-eight-week-old female athymic Balb/c nude mice were housed with a temperature-controlled and 12-hour light/12-hour dark cycle environment. For in vivo colon cancer tumor growth, 5×10^6 RKO cells were prepared in 100 μl of DMEM and injected into right flank of female nude mice. Mouse weight and tumor volume were measured twice a week. Tumor volumes were calculated as length×width^2×0.5. Once the tumor volume had reached about 150-175 mm^3, xenografts were randomized into groups (8 mice per group). Animals were treated with vehicle, Compound 80 or oxaliplatin as mentioned in the table. The formulation for vehicle and Compound 80 was 50% PEG400 and 20% Cremophor RH40 final (50% of 40% Cremophor) in Acetate buffer, PH=4. Oxaliplatin was prepared in glucose solution. The mice were sacrificed after around 3 weeks or if the tumors reached a predefined tumor volume cut-off of 2500 mm^3.

[2] = tested on: MDA-MB-231 xenograft; assay: MDA-MB-231 xenograft tumor growth; format: in vivo, athymic Balb/c nude mice; details: 20, 25 and 30 mpk BID
Experimental: (§1) Compound 80 was tested in other xenograft models using the following cell lines: triple negative breast cancer cell line, MDA-MB-231, ovarian cancer cell line, SKOV-3 and endometrium cell line, HEC-59. For the SKOV-3 xenograft, 1.5×10^7 SKOV-3 cells in 200 μl of 1:1 DMEM:Matrigel (Thermo Fisher, NJ, USA) and for the MDA-MB-231 xenograft, 1.×10^7 MDA-MB-231 cells in 100 μl of 1:1 DMEM:Matrigel (Thermo Fisher, NJ, USA) for was injected in the right flank of six-to-eight-week-old female athymic Balb/c nude mice. When the tumor volume reached mean of ~200 mm^3 mice for SKOV-3 xenografts and between 150-175 mm^3 for MDA-MB-231 xenografts, mice were randomized in a group of 8, and treatment was initiated vehicle, 20 mpk BID, 25 mpk BID and 30 mpk BID of Compound 80. For the HEC-59 xenografts, 1.×10^7 HEC-59 cells in 100 μl of DMEM (Lonza, NJ, USA) was injected in the right flank of six-to-eight-week-old female athymic Balb/c nude mice. When the tumor volume reached mean of ~150 mm^3 mice were randomized in a group of 8 mice, and treatment was initiated vehicle, 20 mpk BID, 40 mpk QD and 30/40 mpk BID of Compound 80.

[3] = tested on: SKOV-3 xenograft; assay: SKOV-3 xenograft tumor growth; format: in vivo, athymic Balb/c nude mice; details: 20, 25 and 30 mpk BID
Experimental: as §1

[4] = tested on: HEC-59 xenograft; assay: HEC-59 xenograft tumor growth; format: in vivo, athymic Balb/c nude mice; details: 20 mpk BID, 40 mpk QD, 30/40 mpk BID
Experimental: as §1

[5] = tested on: glioblastoma (GBM) xenografts; details: Polson et al., 2018; cited from earlier work
[6] = Wurdak et al., 2010; cited from earlier work
[7] = tested on: neuronal differentiation; details: rats; Wurdak et al., 2010; cited from earlier work
[8] = tested on: ovarian cancer cells; details: Yao et al., 2014; cited from earlier work
[9] = tested on: ovarian cancer xenografts; details: Yao et al., 2014; cited from earlier work

C[C@@H]1CN(c2ncc(F)c(Nc3cc(-c4ccc(OC(F)F)cc4)cnn3)n2)C[C@H](C)O1 [Compound 80, 5-(4-(difluoromethoxy)phenyl)-N-(2-((2R,6S)-2,6-dimethylmorpholino)-5-fluoropyrimidin-4-yl)pyridazin-3-amine]
tumor growth inhibition ([1]; RKO xenograft, 20 and 30 mg/kg BID, 50 mg/kg QD, PO): strong tumor growth inhibition in a dose-dependent manner
tumor growth inhibition compared to the standard of care (FIG. 1) ([1]; xenograft model, vs standard of care): superior tumor growth inhibition
tumor growth inhibition or regression [2]: Statistically significant tumor growth inhibition or regression
tumor growth inhibition or regression [3]: Statistically significant tumor growth inhibition or regression
tumor growth inhibition or regression [4]: Statistically significant tumor growth inhibition or regression

CC(C)CNc1ccnc(NCc2csc(-c3ccccc3)n2)n1 [KHS101]
tumor growth of glioblastoma (GBM) xenografts [5]: suppressed
oral systemic stability [6]: low oral systemic stability
neuronal differentiation [7]: promote neuronal differentiation

CCN(Cc1ccncc1)Cc1c(O)ccc2c(-c3cc4ccccc4oc3=O)cc(=O)oc12 [SPL-B]
centrosome microtubule nucleation [8]: inhibit the centrosome microtubule nucleation
tumor growth in ovarian cancer xenografts [9]: suppress tumor growth
